Measurements from ChEMBL document CHEMBL4680324, “Discovery of natural product ellagic acid as a potent CD73 and CD39 dual inhibitor” (Bioorg Med Chem Lett, 2021).

How the values were obtained:
5'-nucleotidase [1] = biological target: 5'-nucleotidase (Homo sapiens, UniProt P21589); experiment: Inhibition of human CD73
5'-nucleotidase [2] = biological target: T1, 5'-nucleotidase (Mus musculus, UniProt Q61503); experiment: Inhibition of mouse CD73
T1 sequence (Q61503 whole entry): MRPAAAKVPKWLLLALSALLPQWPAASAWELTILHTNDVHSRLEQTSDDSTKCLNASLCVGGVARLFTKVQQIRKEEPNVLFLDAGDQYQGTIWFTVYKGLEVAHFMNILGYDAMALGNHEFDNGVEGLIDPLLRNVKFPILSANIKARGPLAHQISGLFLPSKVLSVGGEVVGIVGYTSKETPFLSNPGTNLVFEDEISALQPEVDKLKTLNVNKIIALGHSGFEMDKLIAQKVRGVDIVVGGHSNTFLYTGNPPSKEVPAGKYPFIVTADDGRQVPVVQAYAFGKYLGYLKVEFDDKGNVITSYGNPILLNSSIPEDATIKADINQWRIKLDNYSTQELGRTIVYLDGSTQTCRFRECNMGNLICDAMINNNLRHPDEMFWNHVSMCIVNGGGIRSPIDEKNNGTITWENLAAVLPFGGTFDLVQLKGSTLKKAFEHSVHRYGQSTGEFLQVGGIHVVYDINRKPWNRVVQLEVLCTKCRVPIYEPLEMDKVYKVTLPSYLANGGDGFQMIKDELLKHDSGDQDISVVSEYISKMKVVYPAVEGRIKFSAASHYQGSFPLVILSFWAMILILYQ

[3] = biological target: T2, Ectonucleoside triphosphate diphosphohydrolase 1 (Mus musculus, UniProt P55772); experiment: Inhibition of mouse CD39
T2 sequence (P55772 whole entry): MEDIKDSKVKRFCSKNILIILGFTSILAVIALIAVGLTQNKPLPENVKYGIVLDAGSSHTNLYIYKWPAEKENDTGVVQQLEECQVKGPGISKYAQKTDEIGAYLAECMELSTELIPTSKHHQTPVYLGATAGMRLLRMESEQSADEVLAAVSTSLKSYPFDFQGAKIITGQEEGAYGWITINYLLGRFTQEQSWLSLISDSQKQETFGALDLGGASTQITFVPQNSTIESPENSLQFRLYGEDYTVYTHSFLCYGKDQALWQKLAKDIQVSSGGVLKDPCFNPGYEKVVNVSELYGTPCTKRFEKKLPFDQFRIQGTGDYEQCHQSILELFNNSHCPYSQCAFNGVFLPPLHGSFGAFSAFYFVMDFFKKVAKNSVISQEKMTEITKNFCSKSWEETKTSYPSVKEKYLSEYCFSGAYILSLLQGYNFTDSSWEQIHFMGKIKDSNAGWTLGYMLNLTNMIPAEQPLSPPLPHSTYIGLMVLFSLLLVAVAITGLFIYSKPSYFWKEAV

MDA-MB-231 = experiment: Cytotoxicity against human MDA-MB-231 cells expressing CD73 assessed as reduction in cell viability by CCK8 assay; assay type: functional, cell-based
MIA PaCa-2 = experiment: Cytotoxicity against human MIA PaCa-2 cells expressing CD73 assessed as reduction in cell viability by CCK8 assay; assay type: functional, cell-based
[4] = Selectivity ratio of IC50 for inhibition of human CD73 to IC50 for inhibition of mouse CD73
[5] = Selectivity ratio of IC50 for inhibition of human CD73 to IC50 for inhibition of mouse CD39

Chain of 5'-nucleotidase (Homo sapiens, UniProt P21589) (P21589 whole entry): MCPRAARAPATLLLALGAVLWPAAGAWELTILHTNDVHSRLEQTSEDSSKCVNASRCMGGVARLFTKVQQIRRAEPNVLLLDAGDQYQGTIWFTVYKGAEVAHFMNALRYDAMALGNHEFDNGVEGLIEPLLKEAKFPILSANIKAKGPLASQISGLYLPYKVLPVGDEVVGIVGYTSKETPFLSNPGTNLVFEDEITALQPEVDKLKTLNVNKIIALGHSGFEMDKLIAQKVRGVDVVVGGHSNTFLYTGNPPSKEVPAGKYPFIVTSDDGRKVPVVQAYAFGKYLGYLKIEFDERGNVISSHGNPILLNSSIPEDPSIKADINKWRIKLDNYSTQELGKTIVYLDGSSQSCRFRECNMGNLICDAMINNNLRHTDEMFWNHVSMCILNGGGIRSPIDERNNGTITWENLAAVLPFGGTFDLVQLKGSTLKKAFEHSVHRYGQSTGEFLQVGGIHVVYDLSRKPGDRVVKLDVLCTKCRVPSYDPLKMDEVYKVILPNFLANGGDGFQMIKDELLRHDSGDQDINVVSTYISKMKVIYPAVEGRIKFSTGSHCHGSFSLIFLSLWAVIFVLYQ

Compound	IC50 (5'-nucleotidase [1])	IC50 (5'-nucleotidase [2])	IC50 [3]	IC50 (MDA-MB-231)	IC50 (MIA PaCa-2)	Ratio IC50 [4]	Ratio IC50 [5]
C=C(C)[C@@H]1CC[C@]2(CO)CC[C@]3(C)[C@H](CC[C@@H]4[C@@]5(C)CC[C@H](O)C(C)(C)[C@@H]5CC[C@]43C)[C@@H]12 [BETULIN]	22.7 µM	50.3 µM	49.8 µM	24.6 µM	95 µM	–	–
O=c1oc2c(O)c(O)cc3c(=O)oc4c(O)c(O)cc1c4c23 [ELLAGIC ACID]	1.85 µM	0.04 µM	0.5 µM	27.4 µM	150 µM	46.5	3.7
Nc1ccn([C@@H]2O[C@H](CO)[C@@H](O)C2(F)F)c(=O)n1 [GEMCITABINE]	–	–	–	1.15 µM	0.23 µM	–	–
O=C(OC[C@H]1O[C@@H](OC(=O)c2cc(O)c(O)c(O)c2)[C@H](OC(=O)c2cc(O)c(O)c(O)c2)[C@@H](OC(=O)c2cc(O)c(O)c(O)c2)[C@@H]1OC(=O)c1cc(O)c(O)c(O)c1)c1cc(O)c(O)c(O)c1 [PENTAGALLOYL GLUCOSE]	10.5 µM	> 100 µM	1.56 µM	9.12 µM	72.6 µM	–	–
Nc1ncnc2c1ncn2[C@@H]1O[C@H](COP(=O)(O)CP(=O)(O)O)[C@@H](O)[C@H]1O [PHOSPHOMETHYLPHOSPHONIC ACID ADENOSYL ESTER]	3.97 µM	4.63 µM	> 100 µM	–	–	–	–
